For data set [1], the system named is Elastin/Tropoelastin by normal human fibroblasts. In words: Release of Elastin/Tropoelastin by normal human fibroblasts (ELISA sandwich method). The class given is cell-based. The conditions noted are these: TGF-β1 10-6% (positive control); vs control (placebo); n = 5. How it is done:
Normal human dermal fibroblasts (NHDF) were cultured to confluence. The cells were then exposed or not to preparations comprising the Tyr-Arg dipeptide at different concentrations. The culture supernatants were assayed to determine the quantity of Elastin/Tropoelastin using an ELISA sandwich method. TGF-β1 was used as the positive control.
(An ELISA detects its analyte on a solid surface through an enzyme-linked reagent.)

Data set [2] has as its system transglutaminase activity in NHDF. Briefly: Transglutaminase activity in NHDF (Dansyl Cadaverine substrate, fluorescence). Type of data set: cell-based, human. The conditions noted are these: TGF-β1 10^−6%, vs control, n=6. From the text:
NHDF were cultivated until confluence. The cells were exposed or not exposed to preparations containing or not Tyr-Arg dipeptide. The cell layers are then exposed to transglutaminase substrate (Dansyl Cadaverine, DC). The fluorescence obtained is proportional to transglutaminase activity. (n=6).

For data set [3], the system named is elastin/tropoelastin, NHDF. In words: Synthesis of elastin/tropoelastin by normal human fibroblasts (immunolabeling, image analysis). The conditions noted are these: TGF-β1, vs control. Type of data set: cell-based. How it is done: Principle: normal human fibroblastes (NHDF) were cultured to confluence. The cells were then exposed or not to preparations containing Tyr-Arg peptide. The cellular layers are then marked with an antibody recognising specifically elastine.

The subject of data set [4] is Fibulin-5 synthesis by NHDF. Briefly: Fibulin-5 synthesis by NHDF (Western Blot method). The conditions noted are these: 10^−6% TGF-β1. The class given is cell-based, human. As to the method:
NHDF were cultured to confluence. The cells were exposed or not exposed to preparations containing Tyr-Arg dipeptide. The cell layers were then lysed and analyzed using the Western Blot* method. Fibulin-5 synthesis was detected using a specific antibody. The resulting bands were quantified using appropriate image-analysis software. * Western Blot: the cell layers were blended in lysis buffer. The lysate was applied to a polyacrylamide gel for electrophoresis. After migration, the proteins were transferred to a nitrocellulose membrane and the proteins of interest detected using a specific antibody. Image analysis was used to quantify the two fibulin-5 bands obtained.

The test system of a further data set is Fibrillin-1 by NHDF. Briefly: Synthesis of Fibrillin-1 by NHDF (immunolabeling method). Type of data set: cell-based, human. The conditions noted are these: TGF-β1 10^−6%, vs control. As to the method: As indicated in the introduction, elastin formation is not sufficient. The presence of microfibril scaffolding is necessary. The induction of Fibrillin-1 synthesis was thus investigated.
NHDF were cultured to confluence. The cells were then exposed or not exposed to Tyr-Arg dipeptide at different concentrations for 18 days. The cell layers were then labeled with an antibody to specifically detect Fibrillin-1 by immunofluorescence.
Standardized photographs enabled imaging and quantification of Fibrillin-1 synthesis by image analysis (n=4).

In data set [5] the test system is LOXL-1 in reconstructed skin specimens (Full Thickness Skin PHENION). Briefly: LOXL-1 (lysyl oxydase like 1) synthesis in reconstructed skin specimens (immunolabeling). Type of data set: cell-based. The conditions noted are these: TGF-β1 used as positive control. As to the method: LOXL synthesis was analyzed by preparations containing Tyr-Arg dipeptide in reconstructed skin specimens (Full Thickness Skin PHENION).
LOXL synthesis after application of the dipeptide was evaluated by an immunohistochemical analysis.
Preparations of Tyr-Arg dipeptide were applied to the surface of ? aged ? or not ? aged ? skins from the evening of D1 then every day. The skins were thereafter frozen for the immunohistochemical analysis.

Regarding TGF-β1 [reference compound], the “% change in the elastin/tropoelastin synthesis” value in data set [1] is on record as “+1127%; p < 0.01”. Also, the “% change of the transglutaminase activity (AFU/10^6 cells)” value in data set [2] is on record as “+26%; p < 0.01”. Moreover, the “% change (elastin/tropoelastin, immunolabeling)” value in data set [3] is given as “+87%; p < 0.01”. The “% change/Control (fibulin-5 bands)” value in data set [4] is on record as “+55% p < 0.01”. Also, the “Mean intensity (UA) of the fibulin-5 bands” value in data set [4] (control 18.6 +/− 4.3) is listed as 28.8 +/− 8 UA. In the data set on Fibrillin-1 by NHDF, the “% change of Fibrillin-1 synthesis” value is “+760%; p < 0.01”. Also, the “Effect on synthesis of LOXL-1 (positive control)” value in data set [5] was “expected effect stimulating the synthesis of LOXL-1”.

Source of the values: patent US20120076842A1, “COSMETIC USE OF TYR-ARG DIPEPTIDE TO COMBAT CUTANEOUS SAGGING” (SEDERMA, priority 2009, published 2012).
